From patent US20260182574A1 (priority 2022, published 2026)

How the values were obtained:
Botrytis cinerea [1] = assay: Activity against the grey mold Botrytis cinerea in the microtiterplate test; assay type: cell-based; conditions: 31 ppm; microtiter plate, 405 nm, 7 days after inoculation
Corynespora zeae = assay: Activity against Corynespora zeae in the microtiterplate test; assay type: cell-based; conditions: 31 ppm; microtiter plate
[2] = tested on: Corynespora cassiicola G413A mutant; assay: Activity against Corynespora cassiicola G413A mutant in the microtiterplate test; assay type: cell-based; conditions: 31 ppm; microtiter plate; G413A mutant isolates
Cercospora sojina = assay: Activity against Cercospora sojina in the microtiterplate test; assay type: cell-based; conditions: 31 ppm; microtiter plate
Sclerotinia sclerotiorum = assay: Preventative fungicidal control of white mold on cabbage caused by Sclerotinia sclerotiorum (green house); assay type: in vivo; conditions: 125 ppm; cabbage sprayed 1 day before inoculation; assessed after 8 days; untreated plants 80% infected
Experimental: (§1) The compound was dissolved in a mixture of acetone and/or dimethylsulfoxide and the wetting agent/emulsifier Wettol, which is based on ethoxylated alkylphenoles, in a ratio (volume) solvent-emulsifier of 99 to 1 to give a total volume of 5 ml. Subsequently, water was added to total volume of 100 ml.
(§2) This stock solution was then diluted with the described solvent-emulsifier-water mixture to the final concentration given in the table below.
Cabagges were grown in pots to the 13 to 14 leaf stage. These plants were sprayed to run-off with previously described spray solution, containing the concentration of active ingredient or their mixture mentioned in the table below. The plants could air-dry. The next day the cabbage leaves were inoculated with 50 μl of a mixture of ground petals, methylcellulose, water, and yeast-bactopeptone media (includes spores of Sclerotinia sclerotiorum). After 8 days at 21° C. and a relative humidity of 60% the extent of fungal attack on the leaves were visually assessed as % diseased leaf area.

Botrytis cinerea [3] = assay: Long lasting control of Botrytis cinerea on leaves of green pepper (green house); assay type: in vivo; conditions: 125 ppm; green pepper sprayed 7 days before inoculation; assessed after 5 days; untreated plants 90% infected
Experimental: as §1, §2
Young seedlings of green pepper were grown in pots to the 4 to 5 leaf stage. These plants were sprayed to run-off with previously described spray solution, containing the concentration of active ingredient or mixture mentioned in the table below. The plants were then cultivated in the greenhouse for 7 days and then inoculated with an aqueous biomalt or DOB solution containing the spore suspension of Botrytis cinerea. Then the plants were immediately transferred to a humid chamber. After 5 days at 22 to 24 °C and a saturated relative humidity, the extent of fungal attack on the leaves was visually assessed as % diseased leaf area.

| SMILES | growth of the pathogen (relative to compound-free control = 100%) (Botrytis cinerea [1]) [%] | growth of the pathogen (relative to compound-free control = 100%) (Corynespora zeae) [%] | growth of the pathogen (relative to compound-free control = 100%) [2] [%] | growth of the pathogen (relative to compound-free control = 100%) (Cercospora sojina) [%] | growth of the pathogen (% diseased leaf area) (Sclerotinia sclerotiorum) | growth of the pathogen (% diseased leaf area) (Botrytis cinerea [3]) |
| --- | --- | --- | --- | --- | --- | --- |
| CN1c2ccccc2C(c2cnc3c(F)cccc3c2)=NC(=O)C1(C)C [Ex-10] | 4 | 8 | – | – | – | – |
| CN1CC2(CC2)N=C(c2cnc3c(F)cccc3c2)c2cccc(F)c21 [Ex-17] | 4 | – | 11 | 6 | up to 8% | up to 15% |
| CC1(C)C(=O)N=C(c2cnc3c(F)cccc3c2)c2ccccc2N1C#N [Ex-12] | 4 | – | – | – | – | – |
